Laboratory results from patent US20040157902A1, “Integrin antagonists” (priority 2001, published 2004).

Assay: partition coefficient octanol/water at pH 7.4 (logD(7.4))
Type: physicochemical
From the text: If an active ingredient is introduced into an octanol/water mixture, it partitions between the two phases at a given pH in accordance with its lipophilicity/hydrophilicity. The ratio of the partitioning of the active ingredient between the octanol and water phases is known as the partition coefficient. Absorption of active ingredients requires that they both dissolve in aqueous media and also pass through the corresponding membranes. For the latter, a certain lipophilicity of the active ingredient is necessary. The requisite lipophilicity arises from the lipophilicity of the respective membrane. Thus, absorption in the intestine requires a logD value of >−1.50 and passage through the blood-brain barrier requires a logD value of >0.5 (Lipinski C. A: Adv. Drug Del. Rev. 23 (1997), 3-25). A favourable logD value is an essential prerequisite for absorption of an active ingredient.
logD values given above and below are partition coefficients of the compounds in question octanol/water at a pH of 7.4 (logD(7.4)).
Compound `O=C(CCCCNc1ccccn1)NCC(=O)NC(Cc1nnn[nH]1)c1ccc(-c2ccccc2)cc1` (stereo not drawn) [EMD 389 889, N-[1-biphenyl-4-yl-2-(1H-tetrazol-5-yl)ethyl]-2-[5-(pyridin-2-ylamino)pentanoylamino]-acetamide] has a logD of 6.52. Work on `CS(=O)(=O)NC(=O)CC(NC(=O)CNC(=O)CCCCNc1ccccn1)c1ccc(-c2ccccc2)cc1` (stereo not drawn) [EMD 387 803] yielded a logD of -0.38. In the case of `O=C(CNC(=O)NCCCNc1ccccn1)NC(Cc1nnn[nH]1)c1ccc(-c2ccccc2)cc1` (stereo not drawn) [EMD 387 890, N-[1-biphenyl-4-yl-2-(1H-tetrazol-5-yl)ethyl]-2-{3-[3-(pyridin-2-ylamino)propyl]ureido}acetamide], the logD is reported as 6.19.
